One data set deals with A375 melanoma cells. In words: Transwell cell migration assay, A375 melanoma cells. The class given is cell-based. The following applies: Homo sapiens, A-375; A375 melanoma cells, Transwell 5 μm pore, 24 h, Example 3 (FIGS. 1A, 1E); read-out: IC50 in the migration assay. The protocol: A375 melanoma cells (CRL-1619, American Type Culture Collection (“ATCC”), Manassas Va., USA)) grown in RPMI medium supplement with 10% FBS were starved for 24 hours in FBS free medium. After starvation of 24 hr, 5×10^4 cells in FBS free medium were placed in the upper chamber of 24-well, Transwell apparatus (CORNING TRANS WELL® polycarbonate membrane inserts, 5 μm pore size) with solvent (DMSO/PEG400) or different concentrations of Compound 1 (PRT7000467), Compound 2 (PRT7041128), or Compound 3 (PRT7081582). Medium containing FBS and compounds was added to the bottom chamber. Twenty-four hours later the melanoma cells from the upper chamber were removed with a cotton swab. Cells that migrated to the lower side of the membrane were stained with Calcein-AM (Sigma) and images were taken with fluorescence microscope. The number of migrating cells was quantified by ImageJ software and the IC50 values were calculated using Prism software (Graphpad) (FIG. 1A,1E).
A375 (melanoma) (CRL-1619, ATCC, Manassas, Va., USA), A431 (melanoma) (CRL-2592, ATCC, Manassas, Va., USA), A2058 (melanoma) (CRL-11147, ATCC, Manassas, Va., USA), MDA-MB-231 (breast) (HTB-26, ATCC, Manassas, Va., USA), LS175T (colon) (ATCC, Manassas, Va., USA), HT29 (colon) (HTB-38, ATCC, Manassas, Va., USA), PC3 (prostate) (CRL-1435, ATCC, Manassas, Va., USA), Panc03.27 (pancreatic) (ATCC, Manassas, Va., USA), 4T1 (breast-mouse) (CRL-2539, ATCC, Manassas. Va., USA), D122 (lung-mouse) (the Weizmann Institute of Science), D122-luc (lung-mouse) (the Weizmann Institute of Science), and B16 F10.9 (melanoma-mouse) cells (Caliper Life Sciences, Hopkinton Mass.), were grown in RPMI medium supplemented with 10% FBS. HUVEC cells were grown in Endothelial Cell Growth Medium 2 and THP1 cells were grown in RPMI medium supplemented with 10% FBS, 2 mM L-Glutamine, 1.5 g/L sodium bicarbonate, 10 mM Hepes, 1 mM sodium pyruvate, 4.5 g/L glucose and 0.05 mM 2-mercaptoethanol. The cells were starved for 24 hours in medium without FBS. At the end of the starvation, 5×10^4 cells in medium without FBS were placed in the upper chamber of 24-well, Transwell apparatus (CORNING TRANSWELL® polycarbonate membrane inserts, 5 μm pore size for […] and THP1 cells and 8 μm pore size for all the other cells) with solvent (DMSO/PEG400) or different concentrations of compound 1 (PRT7000467). Medium with FBS and compounds was added to the bottom chamber. Twenty-four hours later the cells from the upper chamber were removed with a cotton swab. Cells that migrated to the lower side of the membrane were stained with Calcein-AM (Sigma) and images were taken with a fluorescence microscope. The number of migrating cells was quantified by ImageJ software and the IC50 values were calculated using Prism software (Graphpad).

In another data set the test system is A375 cells. Nature of the data set: Cell viability, WST-1 reagent, A375 cells grown in two-dimension. Type of data set: cell-based. The following applies: WST-1, 72 h post treatment. The protocol:
Compound 1 (PRT7000467), Compound 2 (PRT7041128), and Compound 3 (PRT7081582) are not toxic to cells grown in two-dimension. A375 cells were cultured with RPMI and 10% FBS. The cells were treated with different concentrations of Compound 1 (PRT7000467) and Compound 2 (PRT7041128), then the viability of the cells was determined seventy-two hours post treatment using WST-1 reagent (Roche) (FIG. 1B)
For orientation: Tetrazolium assays rely on reduction of a dye to a coloured formazan, in cell work by metabolically active cells.

For `O=C(Nc1ccc(S(=O)(=O)Nc2ncccn2)cc1)/C(=C\c1cccs1)NC(=O)c1cccs1` [Compound 2], the IC50 in the data set on A375 melanoma cells came out at 9.2 µM. Also, in the data set on A375 cells, the “toxicity to cells grown in two-dimension” value is reported as “not toxic”.

The record behind these values is patent US20110130374A1, “Small Pyrimidine Derivatives and Methods of Use Thereof” (BIOSEARCH(2007) LTD., priority 2009, published 2011).
